Data published in PubChem BioAssay (NCI).
Several values for one entry are separate records, joined by “and”; a condition that tells them apart may be missing. Equal values may be shown once.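 A five-concentration, 48-hour dose response in 96-well plates underlies each endpoint, interpolated linearly between surrounding concentrations. The concentration for 50% growth inhibition is given as GI50. TGI: total growth inhibition.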 *1 amine or outer side, *2 acyl side, *3 side chain or, on linkers, in order; H or OH if unused. Where a SMILES comes first, the peptide text is derived from it. Bridges are numbered along the chain shown (N, C = ends). Roman numbers before positions name the chains, in order. [ ]: non-standard residue; d: D form. Actinocin(1to9) = Cc1c2oc3c(C)ccc(C(=O)[*:2])c3nc-2c(C(=O)[*:1])c(N)c1=O; NMeV = CN[CH](C(=O)O)C(C)C; Sar = CNCC(=O)O

Experiments:
Test in all cases: DTP human tumour cell line panel, 48 h
EKVX NSCLC = system: EKVX NSCLC
HL-60(TB) leukemia = system: HL-60(TB) leukemia
RXF 393 renal = system: RXF 393 renal
NCI-H522 lung = system: NCI-H522 lung
PC-3 prostate = system: PC-3 prostate
KM12 colon = system: KM12 colon
COLO 205 colon = system: COLO 205 colon
HS 578T breast = system: HS 578T breast
SF-268 CNS = system: SF-268 CNS
OVCAR-3 ovarian = system: OVCAR-3 ovarian
SNB-19 CNS = system: SNB-19 CNS
SK-MEL-28 melanoma = system: SK-MEL-28 melanoma
OVCAR-8 ovarian = system: OVCAR-8 ovarian
SNB-75 CNS = system: SNB-75 CNS
BT-549 breast = system: BT-549 breast
SN12C renal = system: SN12C renal

Row | SMILES | TGI (EKVX NSCLC) | TGI (HL-60(TB) leukemia) [µM] | TGI (RXF 393 renal) [µM] | TGI (NCI-H522 lung) | TGI (PC-3 prostate) | TGI (KM12 colon) [µM] | TGI (COLO 205 colon) [µM] | TGI (HS 578T breast) [µM] | TGI (SF-268 CNS) | TGI (OVCAR-3 ovarian) | TGI (SNB-19 CNS) | TGI (SK-MEL-28 melanoma) [µM] | TGI (OVCAR-8 ovarian) [µM] | TGI (SNB-75 CNS) | TGI (BT-549 breast) [µM] | TGI (SN12C renal) [µM] | GI50 (EKVX NSCLC) [µM] | GI50 (SF-268 CNS) [µM] | GI50 (OVCAR-3 ovarian) [µM] | GI50 (SNB-75 CNS) [µM]
1 | Cc1cccc2c(N)c3cccc(C(=O)NCCNCCN)c3nc12 | > 94.6 µM | > 100 | 36.1 | 1.36 µM | > 100 µM | > 100 | > 33.4 | 24.6 | 1.27 µM | > 93.7 µM | 33.8 µM | 36 | 17.8 | 4.88 µM | 33.3 | – | – | – | – | –
2 | O=[N+]([O-])c1ccc(C2=NOC(c3ccccc3)N2C23CC4CC(CC(C4)C2)C3)cc1 (centres undefined) | > 100 µM | > 100 | – | 35.3 µM | 43.8 µM | 71.9 | 88.1 | 52.6 | > 100 µM | 50.1 µM | – | > 100 | 48.4 | 63.7 µM | 46 | > 100 | – | – | – | –
3 | c1ccc(CN2C3C4N(Cc5ccccc5)C2C2N(Cc5ccccc5)C(C(N2Cc2ccccc2)N4Cc2ccccc2)N3Cc2ccccc2)cc1 | > 100 µM | > 100 | > 100 | > 100 µM | > 100 µM | > 100 | > 100 | > 100 | > 100 µM | > 100 µM | – | > 100 | > 100 | > 100 µM | > 100 | > 100 | – | – | – | –
4 | O=C(Cn1c2ccc(Br)cc2c2nc3ccccc3nc21)NNC(=O)NC1CCCCC1 | > 100 µM | – | > 100 | > 100 µM | > 100 µM | > 100 | > 100 | > 100 | > 100 µM | > 100 µM | > 100 µM | > 100 | > 100 | 73.5 µM | > 100 | > 100 | – | – | – | –
5 | O=c1nc(N2CCCCC2)sc2[nH]c3ccccc3c12 | > 100 µM | > 100 | – | > 100 µM | > 100 µM | > 100 | > 100 | > 100 | > 100 µM | > 100 µM | > 100 µM | > 100 | > 100 | > 100 µM | > 100 | > 100 | – | – | – | –
6 | COc1ccc(CC2NC(=O)C(NC(=O)c3c4nc5c(C(=O)NC6C(=O)NC(Cc7ccc(OC)cc7)C(=O)N7CCCC7C(=O)N(C)CC(=O)N(C)C(C(C)C)C(=O)OC6C)ccc(C)c5oc-4c(C)c(=O)c3N)C(C)OC(=O)C(C(C)C)N(C)C(=O)CN(C)C(=O)C3CCCN3C2=O)cc1 (centres undefined) (I: TY(Me)P[Sar][NMeV] / II: TY(Me)P[Sar][NMeV]; ester I:1-I:C, II:1-II:C; linker I:N-II:N via Actinocin(1to9); configuration not given here) | 3.27 µM and 0.862 µM | < 0.001 | 0.0203 | 0.0234 µM and 0.0235 µM | 0.355 µM and 0.212 µM | 1.06 | 0.0172 | 0.265 | 0.118 µM and 0.526 µM | 0.025 µM and 0.0737 µM | 3.43 µM and 0.539 µM | – | – | 0.0339 µM and 0.324 µM | 0.0254 | – | 0.0514 | < 0.001 | < 0.001 | 0.0552
7 | O=C(O[C@H](/C=C/c1ccccc1)P1(=O)N(Cc2ccccc2)[C@H]2CCCC[C@@H]2N1Cc1ccccc1)c1ccccc1 | > 100 µM | > 100 | – | > 100 µM | > 100 µM | 18.1 | 3.27 | > 100 | > 100 µM | > 100 µM | > 100 µM | > 100 | > 100 | – | > 100 | 14.5 | – | – | – | –
8 | COC(=O)C1=C(C)NC(CF)=C(C(=O)OC)C1c1cccc2c(=O)c3ccccc3oc12 (centres undefined) | > 100 µM | > 100 | > 100 | > 100 µM | 8.57 µM | > 100 | 22.8 | > 100 | 63.6 µM | 66.8 µM | – | > 100 | > 100 | > 100 µM | > 100 | > 100 | – | – | – | –
9 | Cc1ccc(S(=O)(=O)NC(=O)NC(CCCCN)C(=O)O)cc1 (centres undefined) | – | > 100 | > 100 | > 100 µM | > 100 µM | > 100 | > 100 | > 100 | > 100 µM | – | > 100 µM | > 100 | > 100 | > 100 µM | > 100 | > 100 | – | – | – | –
10 | COc1ccc(/C(=N/Nc2nc3ccccc3n2Cc2ccccc2)C(=O)O)cc1 | > 100 µM | 11.5 | – | 68.8 µM | > 100 µM | > 100 | > 100 | > 100 | 63.2 µM | > 100 µM | > 100 µM | > 100 | > 100 | 81.9 µM | > 100 | > 100 | – | – | – | –
11 | CCN(CC)CCC(=O)c1ccc(Cl)c(Cl)c1 | > 100 µM | > 100 | 25.3 | 32.8 µM | > 100 µM | > 100 | 91.4 | 45.9 | 63.4 µM | – | > 100 µM | 30.5 | > 100 | 80.1 µM | 36.3 | > 100 | – | – | – | –
